# In patent US9023789B2, “Amylin analogs and pharmaceutical compositions thereof” (Novo Nordisk A/S, priority 2012, dated 2015):
# Like-named read-outs stand apart in the source and are kept apart here. Numbered stars: 1 amine (or outer) side, 2 acyl side, 3 side chain; on linkers, the order of the positions; unused ones are H or OH. Bridge positions count the residues as written; N and C are the ends. Side chains are listed from the residue outwards. Peptide text beside a SMILES is read from it. * marks the point of attachment. C20 diacid = O=C(O)CCCCCCCCCCCCCCCCCCC(=O)*; γGlu = O=C(O)[C@H](CCC(=O)[*:2])N[*:1]
# Experiments:
# rat calcitonin receptor = biological target: T1, rat calcitonin receptor (Rattus norvegicus, UniProt P32214); assay: ASSAY (VIII) binding to the rat calcitonin receptor; details: Table 7, read-out: rCTR bind IC50
# T1 construct: expressed in transfected cells; host or cells: BHK tk'ts 13 (transient, FuGENE 6), membranes
# T1 sequence (P32214 25-479 isoform P32214-2 limits assumed): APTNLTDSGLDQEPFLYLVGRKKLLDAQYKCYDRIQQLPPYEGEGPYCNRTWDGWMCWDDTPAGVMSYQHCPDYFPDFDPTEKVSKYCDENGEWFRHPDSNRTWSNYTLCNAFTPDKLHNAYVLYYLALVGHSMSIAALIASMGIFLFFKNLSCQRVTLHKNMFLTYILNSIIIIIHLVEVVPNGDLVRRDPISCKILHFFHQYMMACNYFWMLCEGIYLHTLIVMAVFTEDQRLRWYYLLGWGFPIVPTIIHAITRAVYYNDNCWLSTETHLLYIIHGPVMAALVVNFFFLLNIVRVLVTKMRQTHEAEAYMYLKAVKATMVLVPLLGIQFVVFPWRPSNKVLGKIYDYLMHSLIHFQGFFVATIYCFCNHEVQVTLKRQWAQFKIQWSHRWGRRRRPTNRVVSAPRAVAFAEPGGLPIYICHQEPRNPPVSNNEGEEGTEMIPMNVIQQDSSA
# In short: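 Membranes were prepared from BHK tk′ts 13 cells transiently transfected with rat calcitonin receptor. Cells were grown in DMEM with 10% FBS and harvested approximately 48 hours after transfection.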
# [1] = biological target: T2, human amylin receptor (membranes from Amylin 3(a)/CRE-luc cells) (Homo sapiens, UniProt O60896+P30988); assay: ASSAY (V) binding to the human amylin receptor (SPA, 125I-rat amylin);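 also: competition binding of cell membranes (35 ng/µL) mixed with SPA beads in 384-well plates at 40 µL total volume, read by scintillation counting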
# T2 construct: expressed in transfected cells
# T2 sequence (P30988 25-474): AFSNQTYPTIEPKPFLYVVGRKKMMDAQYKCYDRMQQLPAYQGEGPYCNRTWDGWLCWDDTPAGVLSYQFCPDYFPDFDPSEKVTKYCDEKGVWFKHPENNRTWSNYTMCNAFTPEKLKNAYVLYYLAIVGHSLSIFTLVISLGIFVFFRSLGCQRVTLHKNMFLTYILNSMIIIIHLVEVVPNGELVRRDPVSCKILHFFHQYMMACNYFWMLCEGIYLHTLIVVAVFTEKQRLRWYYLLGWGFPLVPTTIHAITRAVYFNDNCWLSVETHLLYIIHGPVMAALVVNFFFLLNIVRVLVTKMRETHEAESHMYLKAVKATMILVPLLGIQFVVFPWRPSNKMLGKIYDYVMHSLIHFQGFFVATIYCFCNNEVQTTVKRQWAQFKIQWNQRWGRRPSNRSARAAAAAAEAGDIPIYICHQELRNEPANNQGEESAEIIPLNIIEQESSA
# T2 sequence (O60896 24-148 partner): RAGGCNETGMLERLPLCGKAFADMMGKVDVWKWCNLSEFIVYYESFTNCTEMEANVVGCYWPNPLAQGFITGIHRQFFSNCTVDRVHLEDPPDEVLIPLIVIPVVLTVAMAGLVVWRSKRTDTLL
# [2] = ASSAY (IV) determination of solubility; format: physicochemical
# In short: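 Polypeptide in water at […] mixed 1:1 with 100 mM buffers of pH 3.0-8.0 (glycylglycine pH 3-5, bistrispropane pH 6-8). Held 18 h at room temperature, then centrifuged; concentration remaining in solution measured by UPLC.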
# [3] = biological target: T3, human amylin 3(a) receptor (human calcitonin receptor + RAMP-3) in BHK570 cells (Homo sapiens, UniProt O60896+P30988); assay: ASSAY (II)a functional assay, human amylin receptor (CRE luciferase); format: cell-based
# T3 construct: expressed in transfected cells
# In short: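 BHK cells stably carrying a CRE-luciferase reporter plus calcitonin receptor, or calcitonin receptor with RAMP-3 for the amylin 3(a) receptor, were seeded and kept overnight at 37° C. Compounds were added in assay medium with 10% FBS and 10 mM Hepes, pH 7.4, for 3 hours at 37° C, then luminescence was counted.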
# [4] = biological target: T4, rat amylin receptor (rat calcitonin receptor + rat RAMP 3) (Rattus norvegicus, UniProt P32214+Q9JJ73); assay: ASSAY (VI) binding to the rat amylin receptor; details: for IC50: binding to rat amylin receptor, read-out: rAmylin-R bind IC50
# T4 construct: expressed in transfected cells; host or cells: BHK tk'ts 13 (transient, FuGENE 6), membranes
# T4 sequence (P32214 25-479 isoform P32214-2 limits assumed): T1 sequence (P32214 25-479 isoform P32214-2 limits assumed)
# T4 sequence (Q9JJ73 23-147 partner): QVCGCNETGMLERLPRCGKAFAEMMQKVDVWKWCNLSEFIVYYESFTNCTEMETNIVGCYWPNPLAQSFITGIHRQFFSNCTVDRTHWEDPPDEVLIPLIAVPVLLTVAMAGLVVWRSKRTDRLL
# In short: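 Binding to the rat amylin receptor was determined with membrane preparations. The receptor was expressed by transiently transfecting BHK tk′ts 13 cells with rat calcitonin receptor, using FuGENE® 6 (Roche) according to the manufacturer's recommendations. Roughly 48 hours later the cells were harvested and their membranes isolated.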
# [5] = Table 5, selectivity, hCTR bind IC50 / hAmylin-R bind IC50
# [6] = Table 5a, selectivity, hCTR bind IC50 / hAmylin-R bind IC50
# [7] = Table 5b, selectivity, hCTR bind IC50 / hAmylin-R bind IC50
# [8] = Table 5c, selectivity, hCTR bind IC50 / hAmylin-R bind IC50
# [9] = Table 7, human binding selectivity, included for comparison
# [10] = Table 7a (preferred compounds), human binding selectivity, included for comparison
# [11] = ratio of human calcitonin receptor binding IC50 to human amylin receptor binding IC50
# [12] = bistrispropane buffer, pH 6.5, read-out: Solubility pH 6.5 Concentration
# [13] = bistrispropane buffer, pH 7.5, read-out: Solubility pH 7.5 Concentration
# [14] = bistrispropane buffer, pH 6.0, read-out: Solubility pH 6.0 Concentration
# [15] = bistrispropane buffer, pH 7.0, read-out: Solubility pH 7.0 Concentration
# [16] = bistrispropane buffer, pH 8.0, read-out: Solubility pH 8.0 Concentration
# [17] = glycylglycine buffer, pH 3.0, read-out: Solubility pH 3.0 Concentration
# [18] = glycylglycine buffer, pH 4.0, read-out: Solubility pH 4.0 Concentration
# [19] = glycylglycine buffer, pH 5.0, read-out: Solubility pH 5.0 Concentration
# [20] = hCTR funct. EC50 divided by hAmylin-R funct. EC50
# [21] = hCTR funct. EC50 over hAmylin-R funct. EC50
# [22] = human functional selectivity: hCTR funct. EC50 / hAmylin-R funct. EC50
# [23] = Table 7, rat binding selectivity, rCTR IC50 / rAmylin-R IC50
# [24] = Table 7a (preferred compounds), rat binding selectivity, rCTR IC50 / rAmylin-R IC50
# [25] = ratio of rCTR bind IC50 to rAmylin-R bind IC50
IC50 (rat calcitonin receptor),"Ratio hCT/hAmylin binding [1, 5]","Ratio hCT/hAmylin binding [1, 6]","Ratio hCT/hAmylin binding [1, 7]","Ratio hCT/hAmylin binding [1, 8]","Ratio hCT/hAmylin binding [1, 9]","Ratio hCT/hAmylin binding [1, 10]","Ratio hCT/hAmylin binding [1, 11]","solubility at 18 h [2, 12]","solubility at 18 h [2, 13]","solubility at 18 h [2, 14]","solubility at 18 h [2, 15]","solubility at 18 h [2, 16]","solubility at 18 h [2, 17]","solubility at 18 h [2, 18]","solubility at 18 h [2, 19]","Ratio hCT/hAmylin funct. [3, 20]","Ratio hCT/hAmylin funct. [3, 21]","Ratio hCT/hAmylin funct. [3, 22]",IC50 ([4]; Table 7),Compound,other results
26.3 nM,26.4,26.4,26.4,26.4,26.4,26.4,26.4,≥ 200 µM,≥ 200 µM,≥ 200 µM,≥ 200 µM,≥ 200 µM,≥ 200 µM,≥ 200 µM,≥ 200 µM,13.1,13.1,13.1,1.16 nM,CC[C@H](C)[C@H](NC(=O)[C@H](C)NC(=O)CNC(=O)[C@H](Cc1ccccc1)NC(=O)[C@H](CC(N)=O)NC(=O)[C@@H]1CCCN1C(=O)[C@H](CO)NC(=O)[C@H](CO)NC(=O)[C@H](Cc1c[nH]cn1)NC(=O)[C@H](CCCNC(=N)N)NC(=O)[C@H](CC(C)C)NC(=O)[C@H](Cc1ccccc1)NC(=O)[C@H](CCC(=O)O)NC(=O)[C@H](C)NC(=O)[C@H](CC(C)C)NC(=O)[C@H](CCCNC(=N)N)NC(=O)[C@H](CCC(N)=O)NC(=O)[C@@H](NC(=O)[C@H](C)NC(=O)[C@@H]1CSSC[C@H](NC(=O)[C@@H](N)CCCCNC(=O)CC[C@H](NC(=O)CCCCCCCCCCCCCCCCCCC(=O)O)C(=O)O)C(=O)N[C@@H](CC(N)=O)C(=O)N[C@@H]([C@@H](C)O)C(=O)N[C@@H](C)C(=O)N[C@@H]([C@@H](C)O)C(=O)N1)[C@@H](C)O)C(=O)N1CCC[C@H]1C(=O)N[C@@H](CO)C(=O)N[C@@H](CO)C(=O)N[C@H](C(=O)N[C@@H](CC(N)=O)C(=O)N[C@H](C(=O)NCC(=O)N[C@@H](CO)C(=O)N[C@@H](Cc1c[nH]cn1)C(=O)N[C@H](C(=O)N[C@@H](Cc1ccc(O)cc1)C(N)=O)[C@@H](C)O)C(C)C)[C@@H](C)O [Example 128] (H-K([γGlu-C20 diacid])CNTATCATQRLAEFLRHSSPNFGAIPSSTNVGSHTY-NH2; disulfide 2-7 (inferred); N-terminus assumed),"Ratio rCT/rAmylin binding [4, 23]: 22.7; Ratio rCT/rAmylin binding [4, 24]: 22.7; Ratio rCT/rAmylin binding [4, 25]: 22.7"
404 nM,18.5,18.5,18.5,18.5,18.5,18.5,18.5,≥ 200 µM,≥ 200 µM,≥ 200 µM,≥ 200 µM,165 µM,≥ 200 µM,≥ 200 µM,≥ 200 µM,65.1,65.1,65.1,1.24 nM,CC[C@H](C)[C@H](NC(=O)[C@H](C)NC(=O)CNC(=O)[C@H](Cc1ccccc1)NC(=O)[C@H](CC(N)=O)NC(=O)[C@@H]1CCCN1C(=O)[C@H](CO)NC(=O)[C@H](CO)NC(=O)[C@H](Cc1c[nH]cn1)NC(=O)[C@H](CCCNC(=N)N)NC(=O)[C@H](CC(C)C)NC(=O)[C@H](Cc1ccccc1)NC(=O)[C@H](CC(N)=O)NC(=O)[C@H](C)NC(=O)[C@H](CC(C)C)NC(=O)[C@H](CCCNC(=N)N)NC(=O)[C@H](CCC(N)=O)NC(=O)[C@@H](NC(=O)[C@H](C)NC(=O)[C@@H]1CSSC[C@H](NC(=O)[C@@H](N)CCCCNC(=O)CC[C@H](NC(=O)CCCCCCCCCCCCCCC(=O)O)C(=O)O)C(=O)N[C@@H](CC(N)=O)C(=O)N[C@@H]([C@@H](C)O)C(=O)N[C@@H](C)C(=O)N[C@@H]([C@@H](C)O)C(=O)N1)[C@@H](C)O)C(=O)N1CCC[C@H]1C(=O)N[C@@H](CO)C(=O)N[C@@H](CO)C(=O)N[C@H](C(=O)N[C@@H](CC(N)=O)C(=O)N[C@H](C(=O)NCC(=O)N[C@@H](Cc1c[nH]cn1)C(=O)N[C@@H](CC(N)=O)C(=O)N[C@H](C(=O)N[C@@H](Cc1ccc(O)cc1)C(N)=O)[C@@H](C)O)C(C)C)[C@@H](C)O [Example 111],"Ratio rCT/rAmylin binding [4, 23]: 326.8; Ratio rCT/rAmylin binding [4, 24]: 326.8; Ratio rCT/rAmylin binding [4, 25]: 326.8"
